Peptide text beside a SMILES is read from it.
Test system: THP-1 cells crossing HUVEC monolayer
Assay: Trans-endothelial migration assay, xCELLigence RTCA
Type: cell-based, human
Details: 10 nM peptide, 10% FBS, monitored 10 hours, Cell Index, quadruplicate
Text: Diapedesis of leukocytes plays a key role in the pathogenesis of inflammatory diseases and migration of monocytes from the blood into the sub-endothelial space is one of the earliest events. We investigated the effects of [SRSRY] on the number and morphology of THP-1 seeded to an endothelial monolayer. […] (Fig 5A). To examine the changes in morphology in more detail and quantify monocytes interacting with endothelial monolayer, we performed a subset of experiments using GFP-tagged THP-1, labeling co-cultures for F-actin and recording images by a confocal microscope. […] To further ascertain if [SRSRY] reduces trans-endothelial migration of monocytes, the ability of THP-1 cells to cross an endothelial monolayer was analyzed using the xCELLigence RTCA technology as previously described. […] At this time, reduction of impedance values, due to invading cells that interrupt monolayers was monitored in real-time for 10 hours. […]
Fig 5 [SRSRY] prevents trans-endothelial migration of THP-1 cells. […] Representative images of co-cultures analyzed by phase contrast microscopy at 100x with Scale bar: 50 μm (A) or stained with rhodamine- phalloidin and recorded by a confocal microscope (z-series with 0.25 μm intervals) at 630x with Scale bar: 10 μm (B). […] Fluorescent THP-1 cells which were adherent on the endothelial monolayer were counted on 10 fields/slide at 200x magnification. […]

`N=C(N)NCCC[C@@H]1NC(=O)[C@H](CO)NC(=O)[C@H](Cc2ccc(O)cc2)NC(=O)[C@H](CCCNC(=N)N)NC(=O)[C@H](CO)NC1=O` [[SRSRY], [Ser-Arg-Ser-Arg-Tyr]] (cyclo(RSRYS)) was tested, and the “reduction of THP-1 trans-endothelial migration” value was 35%.
